According to patent US20130281313A1, “PROGNOSTIC AND/OR PREDICTIVE BIOMARKERS AND BIOLOGICAL APPLICATIONS THEREOF” (INSTITUT GUSTAVE ROUSSY, priority 2010, published 2013):

Tested on: A549 cells
Test: Transcriptome studies (mRNA microarrays)
Format: cell-based, human
Protocol: NSCLC A549 cells were treated with 100 μM CDDP, 75 μM C2-CER or 100 μM CdCl2 for 12 h, or with 50 μM CDDP, C2-CER or CdCl2 for 24 h. Thereafter, cells were collected and lysed for RNA extraction of following established procedures {de La Motte Rouge, 2007}. mRNA expression changes were quantified on G4112A 44 k Whole Human Genome Oligo Microarrays (Agilent Technologies, Santa Clara, USA), as previously reported {Castedo, 2006}. mRNA microarrays underwent standardized post-hybridization processing, image acquisition and analysis (see below) {Castedo, 2006}.
Data from microarray experiments were analyzed with the Rosetta Resolver® System (Rosetta Biosoftware, Seattle, USA). The threshold for statistical significance of probe signals (Intensity) was set at p=10^−5. […] For each mRNA, fold change (FC) was then defined as Intensitysample/Intensitycontrol when Intensitysample>Intensitycontrol, or as—(Intensitycontrol/Intensitysample) when Intensitysample<Intensitycontrol. Ratios were calculated as Intensitysample/Intensitycontrol.

[1] = 12 h, 100 μM CDDP, 75 μM C2-CER or 100 μM CdCl2, vs untreated cells
[2] = 24 h, 50 μM CDDP, C2-CER or CdCl2, vs untreated cells

N.N.[Cl][Pt][Cl] [CDDP, cis-diammineplatinum(II) dichloride]
Fold change, ADAR (NM_001111) transcript [1]: n.s. | Fold change, ALDH7AT (NM_001182) transcript [1]: n.s. | Fold change, CD151 (NM_004357) transcript [1]: n.s. | Fold change, CLIC1 (NM_001288) transcript [1]: n.s. | Fold change, COMMO9 (NM_014186) transcript [1]: n.s. | Fold change, COX5B (NM_001802) transcript [1]: n.s. | Fold change, COX7C (NM_001867) transcript [1]: n.s. | Fold change, DHRSX (NM_145177) transcript [1]: −1.94 | Fold change, EBP (NM_006579) transcript [1]: n.s. | Fold change, EEF2 (NM_001901) transcript [1]: 1.36 | Fold change, FDXK (NM_003681) transcript [1]: −1.77 | Fold change, FN3KRP (NM_024619) transcript [1]: 1.33 | Fold change, HDLBP (NM_005336) transcript [1]: n.s. | Fold change, HGD (NM_000187) transcript [1]: −1.68 | Fold change, IL6R (NM_000565) transcript [1]: n.s. | Fold change, KHSRP (NM_003685) transcript [1]: n.s. | Fold change, LOC389727 (NM_372092) transcript [1]: n.s. | Fold change, MAT2A (NM_005911) transcript [1]: −1.97 | Fold change, MOL1 (NM_021960) transcript [1]: 2.48 | Fold change, MPP6 (NM_016447) transcript [1]: n.s. | Fold change, OSTCL (NM_145303) transcript [1]: n.s. | Fold change, P5MC5 (NM_002805) transcript [1]: n.s. | Fold change, PLK1S1 (NM_018474) transcript [1]: n.s. | Fold change, PPM1J (NM_005167) transcript [1]: 1.63 | Fold change, RNF26 (NM_032015) transcript [1]: n.s. | Fold change, RRAD (NM_004185) transcript [1]: 6.59 | Fold change, SEMA3G (NM_000379) transcript [1]: −1.58 | Fold change, SLC22A16AS (NM_007105) transcript [1]: −1.36 | Fold change, SOCS6 (NM_004232) transcript [1]: −1.28 | Fold change, TMED1 (NM_006858) transcript [1]: 1.35 | Fold change, TRIP4 (NM_016213) transcript [1]: −1.64 | Fold change, UBE2L3 (NM_003347) transcript [1]: −1.76 | Fold change, UBE21 (NM_014176) transcript [1]: n.s. | Fold change, W282 (NM_018029) transcript [1]: n.s. | Fold change, ADAR (NM_001111) transcript [2]: n.s. | Fold change, ALDH7AT (NM_001182) transcript [2]: 1.62 | Fold change, CD151 (NM_004357) transcript [2]: −2.13 | Fold change, CLIC1 (NM_001288) transcript [2]: n.s. | Fold change, COMMO9 (NM_014186) transcript [2]: n.s. | Fold change, COX5B (NM_001802) transcript [2]: n.s. | Fold change, COX7C (NM_001867) transcript [2]: n.s. | Fold change, DHRSX (NM_145177) transcript [2]: −5.40 | Fold change, EBP (NM_006579) transcript [2]: n.s. | Fold change, EEF2 (NM_001901) transcript [2]: −1.31 | Fold change, FDXK (NM_003681) transcript [2]: −1.44 | Fold change, FN3KRP (NM_024619) transcript [2]: 1.25 | Fold change, HDLBP (NM_005336) transcript [2]: n.s. | Fold change, HGD (NM_000187) transcript [2]: −1.50 | Fold change, IL6R (NM_000565) transcript [2]: n.s. | Fold change, KHSRP (NM_003685) transcript [2]: −2.00 | Fold change, LOC389727 (NM_372092) transcript [2]: n.s. | Fold change, MAT2A (NM_005911) transcript [2]: n.s. | Fold change, MOL1 (NM_021960) transcript [2]: n.s. | Fold change, MPP6 (NM_016447) transcript [2]: n.s. | Fold change, OSTCL (NM_145303) transcript [2]: n.s. | Fold change, P5MC5 (NM_002805) transcript [2]: n.s. | Fold change, PLK1S1 (NM_018474) transcript [2]: n.s. | Fold change, PPM1J (NM_005167) transcript [2]: n.s. | Fold change, RNF26 (NM_032015) transcript [2]: n.s. | Fold change, RRAD (NM_004185) transcript [2]: 3.75 | Fold change, SEMA3G (NM_000379) transcript [2]: n.s. | Fold change, SLC22A16AS (NM_007105) transcript [2]: −1.34 | Fold change, SOCS6 (NM_004232) transcript [2]: n.s. | Fold change, TMED1 (NM_006858) transcript [2]: n.s. | Fold change, TRIP4 (NM_016213) transcript [2]: n.s. | Fold change, UBE2L3 (NM_003347) transcript [2]: n.s. | Fold change, UBE21 (NM_014176) transcript [2]: n.s. | Fold change, W282 (NM_018029) transcript [2]: 1.30
